The subject of experiment [1] is rat model of streptozotocin (STZ)‐induced diabetic neuropathy. Nature of the experiment: Heterologous tolerance to a common probe (deltorphin II ED50) before and after 6‐day treatment, with or without 6634449. It counts as in vivo. Particulars: for Heterologous tolerance (response to deltorphin II ED50) with 6634449 co‐administration: 6634449 or vehicle i.t. 20 min before each of six agonist injections at ED80, five rats/group; for Tolerance to common probe deltorphin II (ED50) after 6‐day treatment: probe i.t. one day before and one day after six i.t. injections at ED80, 7 rats/group. As to the method:
Type I diabetes was induced by systemic injection of streptozotocin (STZ, 65 mg/kg, i.p.) according to a standardized methodology, which allows development of persistent diabetic neuropathy after the first week of treatment. ^20 At the end of the first week, blood was extracted from the tail vein and blood glucose levels were measured with a glucometer (Accu‐Chek Aviva; Roche Diagnostics) prior to evaluation of analgesia on the second week.
Mechanical allodynia is the consequence of maladaptive neuroplasticity following nerve damage. ^24 In a model of diabetic neuropathy as the one used in this study, hyperglycaemia contributes to generate reactive oxygen species which induce microglia activation and inflammatory mediators. ^25 , ^26 These mediators attenuate the activity of Gly/GABA interneurons in superficial layers ^24 , ^27 , ^28 , ^29 and disrupt the inhibitory control that prevents innocuous touch stimuli from producing pain which leads to allodynia. ^30 DOPrs are expressed in these light‐touch mechanoreceptors ^31 and up‐regulated during sensitization, ^32 , ^33 making DOPr agonists elective for relieving this type of pain. Allodynia was evaluated using Von Frey filaments as previously described. ^19 Briefly, rats were accustomed for 15 min on a metal mesh floor under an inverted plastic box (20 × 10 × 10 cm) in a quiet room dedicated to this behavioural test. After habituation, the plantar surface of the right and left hind legs was alternately touched (6‐8 seconds) with von Frey filaments of progressively wider diameter in order to find the threshold of pressure required to produce withdrawal. The mechanical threshold response was obtained by consigning the pressure in grams that would result in withdrawal of the paw in 50% of 10 trials. A normal rat responds to tactile pressures of 12‐15 g whereas neuropathic rats respond to pressures of 4‐6 g. ^24
To evaluate homologous tolerance, each agonist was injected i.t. once daily for six consecutive days, at ED80 derived from dose‐response curves (deltorphin‐IIED80: 0.30 nmol/30 μL; TIPPED80: 0.40 nmol/30 μL; SB235863ED80: 1.7 nmol/30 μL and SNC‐80ED80: 0.55 nmol/30 μL). Immediately after drug administration, mechanical allodynia was measured every 15 minutes until the analgesic response disappeared. […] Prior to starting any pharmacological treatment, the presence of allodynia was confirmed. Treatments and measures were carried out randomly by two different experimenters to ensure blinding to treatment for the person assessing allodynia. In a series of experiments, an inhibitor of endothelin‐converting enzyme 2 (ECE2), 6634449, was administered by i.t injection (3 nmol/30 μL) 20 minutes prior to administration of DOPr ligands from 2 to 7 days. The vehicle (4% DMSO diluted in CSF sterile) was given as control. The dose of 6634449 used in this study was based on results previously published. ^25
Figure 1 Experimental design. One week after STZ administration, repeated treatments with DOPr agonists were started. Before starting chronic treatment with ED80 of deltorphin II, TIPP, SB235863 or SNC‐80, animals were tested to establish the baseline allodynia. Immediately after, they were injected with deltorphin II at a dose corresponding to ED50, which was repeated at the end of treatment. Allodynia measures were taken every 15 min after each injection until analgesic effects disappeared. Chronic tolerance was evaluated by comparing analgesic response to successive i.t. injections of each agonist between days 2 and 6. Difference in analgesic response to deltorphin II ED50 in days 1 and 8 allowed to establish tolerance induced by the different agonists to this common probe

The subject of experiment [2] is Flag‐DOPr. Nature of the experiment: Agonist‐induced internalization of Flag‐DOPrs in primary cortical neuron cultures. It counts as cell-based, Murine. Conditions: 10 µmol/L, 60 min; rat primary cortical neurons transfected with Flag‐DOPr; three independent experiments. As to the method: Primary neuronal cultures were prepared from rat post‐natal prefrontal cortex (P0‐P2) as previously described. ^19 Briefly, three cultures were independently prepared from 8 to 12 pups each. Pups were cryo‐anaesthetized, and brains were removed and transferred into ice‐cold dissociation solution (NaS0_4 90 mmol/L; K2SO4 30 mmol/L; MgCl2 5.8 mmol/L; CaCl20.25 mmol/L; HEPES 10 mmol/L; glucose 20 mmol/L; pH 7.4). Following dissection, the frontal cortex was digested in papain solution (20 U/mL; 40 minutes at 37°C), and the product passed through Pasteur pipettes of progressively decreasing diameter for mechanical dissociation. The suspension obtained was centrifuged, and cells were then resuspended and diluted to a density of 2.5 million/mL, before plating onto glass coverslips pre‐coated with collagen/poly l‐lysine (each at 0.1 mg/mL). Culture proceeded in supplemented Neurocell medium (B27 4%; 100 U/mL penicillin‐streptomycin; GlutaMAX 2%; FBS 10%) for 24 hours. Coverslips were then transferred to a six‐well plate containing 2 mL of Neurocell medium/well and transfected with Flag‐DOPr (8 µg/well), using a calcium phosphate transfection protocol previously. ^19 Murine DORs tagged with the Flag epitope at the N terminus were a generous gift from Dr M. von Zastrow (University of California at San Francisco, San Francisco, CA).
Immunolabelling of surface receptors for quantification of trafficking was performed as previously described. ^19 Briefly, primary cultures expressing Flag‐DOPrs were incubated at 37°C with Neurocell medium containing Ca^2+‐dependent mouse anti‐Flag M1 antibody (1:100; Sigma). […]
Cytoplasmic and surface labelling densities were quantified with ImageJ using a previously described method, ^27 with small modifications. ^16 In particular, total cytoplasmic labelling density was obtained by measuring fluorescence intensity within the region confined between the external and nuclear perimeters, and dividing this value by the corresponding area. […]

In experiment [3] the test system is DOPr. More on the design: method as in PMID 24174495. Particulars: cited from earlier work.

As to `CCC(C)COC(=O)c1[nH]c2c(c1C)CC1C3Cc4ccc(OC)c5c4C1(CCN3C)C2O5.Cl` (stereo not drawn) [SB235863, [8R‐(4bS*,8aα,8aβ,12bβ)]7,10‐dimethyl‐1‐methoxy‐11‐(2‐ethylpropyl)oxycarbonyl 5,6,7,8,12,12b‐hexahydro‐(9H)‐4,8‐methanobenzofuro[3,2‐e]pyrrolo[2,3‐g]isoquinoline hydrochloride], in experiment [1], the “Heterologous tolerance (response to deltorphin II ED50) with 6634449 co‐administration” value (“Heterologous tolerance” for short) was “remained unchanged” and the “Tolerance to common probe deltorphin II (ED50) after 6‐day treatment” value (shortened to “Tolerance to common probe deltorphin II”) is reported as “induced cross‐tolerance”. Further, in experiment [2], the “Sequestration (intracellular labelling density)” value (shortened to “Sequestration”) is “low‐internalizing”. Further, the “Internalization in HEK cells” value in experiment [3] was “minimal internalization”.

As for deltorphin II, in experiment [1], the “Heterologous tolerance” value is given as “reduced analgesic effect” and the “Tolerance to common probe deltorphin II” value is recorded as “without effect”. In addition, the “Sequestration” value in experiment [2] is recorded as “significantly higher”. The “Internalization in HEK cells” value in experiment [3] is “marked internalization”.

`C=CCN1C[C@H](C)N([C@H](c2ccc(C(=O)N(CC)CC)cc2)c2cccc(OC)c2)C[C@H]1C` [SNC‐80, (+)‐4‐[(αR)‐α‐((2S,5R)‐4‐allyl‐2,5‐dimethyl‐1‐piperazinyl)‐3‐methoxybenzyl]‐N,N‐diethylbenzamide]: in experiment [1], the “Heterologous tolerance” value is “remained unchanged” and the “Tolerance to common probe deltorphin II” value is “induced cross‐tolerance”. In addition, in experiment [2], the “Sequestration” value is “significantly higher”. In addition, the “Internalization in HEK cells” value in experiment [3] is “marked internalization”.

The values are drawn from publication PMC7214178, “Ligand‐specific recycling profiles determine distinct potential for chronic analgesic tolerance of delta‐opioid receptor (DOPr) agonists” (Journal of Cellular and Molecular Medicine, 2020).
